According to paper PMC3353973 (PLoS ONE, 2012):
Numbered stars: 1 amine (or outer) side, 2 acyl side, 3 side chain; on linkers, the order of the positions; unused ones are H or OH. Bridge positions count the residues as written; N and C are the ends. I, II: the chains in the order shown. X1 = CC(C)CCC[C@@H](C)[C@H]1CC[C@H]2[C@@H]3CC=C4C[C@@H](OCCN(CCNC(=O)CCOCCOCCOCCOCCNC(=O)CCCN5C(=O)CC([*:1])C5=O)CCNC(=O)CCOCCOCCOCCOCCNC(=O)CCCN5C(=O)CC([*:2])C5=O)CC[C@]4(C)[C@H]3CC[C@]12C

Details: hamster, in vivo

In the case of “I: Ac-VALDPIDISIVLNKAKSDLEESKEWIRRSNGKLDSIGSGSGC-NH2 / II: Ac-VALDPIDISIVLNKAKSDLEESKEWIRRSNGKLDSIGSGSGC-NH2 (linker I:42-II:42 via X1) [HPIV-P4]”, the “Apparent toxicity in mock-infected animals” value is reported as “did not result in any apparent toxicity”.
